Measurements published in a melting point compilation (Tetko et al.; mined from patent text by program, amines drawn as free bases though some values may be those of a salt).

| melting point [°C] | Structure (SMILES) |
| --- | --- |
| 111 to 112 | Cc1noc2cc3c(cc12)C1(CO3)C(=O)N(Cc2ccc(C(F)(F)F)o2)c2ccccc21 (stereo unspecified) |
| 63 to 64 | Cc1nsc(OCC(F)(F)F)c1[N+](=O)[O-] |
| 168 to 169 | N=C(NCc1cnccn1)NN=Cc1c(Cl)cccc1Cl |
| 31 to 32 | CCCCCCCCCCCCCCOc1ccccc1C(=O)N(CC)CC |
| 164 to 167 | N=C(NO)C1(c2ccccc2Br)CC1 |
| 102 to 104 | CC(C)C1(C)N=C2c3ncc(C4OCCO4)cc3C(=O)N2C1=O (stereo unspecified) |
| 219 to 220 | CCOc1ccc(-c2nc(C)c(C(=O)O)s2)cc1Cl |
| 190 to 191 | O=C(Nc1n[nH]c(=S)s1)NC(Cc1ccccc1)C(=O)NCCCc1ccccc1 (stereo unspecified) |
| 182 to 183 | COC(=O)COc1ccc2cc(CNC(=O)c3cc(-c4ccc(Cl)cc4)oc3C(F)(F)F)ccc2c1 |
| 293 to 295 | CCOC(=O)c1sc(NC(=O)c2ccc(C#N)cc2)nc1C |
| 199 to 200 | COc1ccc(Cn2c(S)nc3ccccc32)cc1 |
| 253 to 257 | O=C1NC(=O)c2c1c(-c1ccccc1Cl)cc1[nH]c3ccc(CCO)cc3c21 |
| 153 to 154 | Cc1ccc(NC(=O)c2ccc(CBr)c(C(F)(F)F)c2)cc1Br |
| 96 to 99 | CCOC(=O)C(=O)Nc1ncccn1 |
| 118 to 120 | C#CCOc1c(OC)cc(/C=C/C(=O)/C=C/c2cc(OC)c(OC)c(OC)c2)cc1OC |
| 159 to 160 | COc1cc2c(cc1OC)C(=O)C(Br)C2 (stereo unspecified) |
| 192 to 193 | COCCn1cc(C(=O)NCc2ccc(Cl)cc2)c(=O)c2cc(CCl)sc21 |
| 220 to 221 | Cc1ccc(-c2ccc(C(=O)Nc3ccc4cc(CN5CCCC5)cnc4c3C)cc2)s1 |
| 299 to 301 | CC1(C#N)C(=O)C2=C(c3ccccc3)NC(=O)C2=C1c1ccccc1 (stereo unspecified) |

| melting point [°C] | Structure (SMILES) |
| --- | --- |
| 164 to 165 | CCOC(=O)C(C)=CNc1ccc2ccccc2n1 |
| 194 to 196 | C=CCCc1nc(N)n2nc(-c3ccco3)nc2n1 |
| 157 to 162 | CN(C)C(=O)NC1CCC(=O)c2ccccc21 (stereo unspecified) |
| 152 to 154 | CSc1ccc(-c2ccccn2)c2c1C(=O)CC(C)(C)C2 |
| 284 to 286 | Cc1[nH]c(C)c(-c2ccc(Oc3ccc(OC(F)(F)F)cc3)cc2)c(=O)c1Br |
| 169 to 171 | Nc1nc(NCCNCC(O)COc2ccccc2)c2[nH]cnc2n1 (stereo unspecified) |
| 161 to 163 | COc1cc2c(cc1OC)C(C(CO)CO)N(C(=O)c1ccccc1)CC2 (stereo unspecified) |
| 207 to 208 | CC(N1C(=O)C(=O)N(c2ccc(Br)cc2)C1=S)C(C)(C)C (stereo unspecified) |
| 144 | Cc1ccc(-c2cn(C)cc(-c3ccccc3)c2=O)cc1 |
| 90 to 92 | CC(C)(C)OC(=O)N1CCN2C[C@H](COc3ccc(F)cc3)CC[C@H]2C1 |
| 124 to 128 | Cc1cc2c([C@@H]3C[C@H]3CNC(=O)C3CC3)cccn2n1 (relative stereo) |
| 270 to 272 | Cc1ccc2c(-c3cccc(O)c3)nc(=O)n(C(C)C)c2c1 |
| 126 to 128 | COc1nc2ccc3c(c2o1)C(CCNC(C)=O)CC3 (stereo unspecified) |
| 206 to 207 | COc1ccc([N+](=O)[O-])c(Nc2ccccc2O)n1 |
| 221 to 222 | CCCc1nn(C)c2c(=O)[nH]c(-c3cc(S(=O)(=O)Cl)cc4c3OCC4)nc12 |
| 158 to 160 | O=C1CCCc2c1cccc2N1CCN(CCCCOc2ccc3ccc(=O)[nH]c3n2)CC1 |
| 100 to 103 | COC(=O)C(c1ccccc1)c1cn[nH]c1 (racemic) |
| 48 to 50 | CCCCCCCCCCCCCCCCOC(=O)c1cc(C(=O)OCCCCCCCCCCCCCCCC)cc(S(=O)(=O)Cl)c1 |
| 201 to 204 | CN1C(=O)CCC(=O)N1c1cc(-c2ccnc(Nc3cccc(Cl)c3)n2)ccn1 |

| Structure (SMILES) | melting point [°C] |
| --- | --- |
| O=[N+]([O-])c1ccc2[nH]cc(C3=CCNCC3)c2c1 | 250 |
| O=C(Nc1ccccc1F)OC1CN2CCC1CC2 (stereo unspecified) | 124 to 126 |
| CN1CCN(C(=O)Nc2ccc3c(c2Cl)C(c2ccccc2F)=NCC(=O)N3C)CC1 | 154 |
